From patent US9497963B2, “Methods and compositions for control of gypsy moth, Lymantria dispar” (Simon Fraser University, priority 2008, dated 2016)
“Also recorded” adds a separate entry of the source. Read-outs that look alike come from different tables or passages of the source.

Legend:
male gypsy moth antenna = assay: Coupled gas chromatographic-electroantennographic detection (GC-EAD); parameters: species or system Lymantria dispar; conditions: EAD peak size and shape (sharp/broad)
Procedure, shortened: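 GC column effluent split between flame ionization detector and an excised male moth antenna held between saline-filled glass capillary electrodes, tip removed, in a warm air stream. Antennal potentials assigned to compounds by matching retention times with FID peaks.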

[1] = test system: third instar gypsy moth larvae; assay: Feeding deterrence, oak leaf disc choice test (Example 13); type: in vivo, Lymantria dispar
Method: Gypsy moth larvae were tested at the Canadian Forest Service, for feeding deterrence. A selected set of compounds, based on the results with the electroantennogram testing and also based on feeding deterrence assay results with the cabbage looper, T. ni. The experiment was done with third instar larvae and oak leaf discs. Larvae were left to choose between a treated and a control disc for 17.5 hours. Measurements of leaf areas were used to calculate the amount of leaf consumed from control (C) and treated (T) leaves. Feeding deterrence was calculated using the following formula: ((C−T)/(C+T))*100, and expressed in percent, where C=area of control leaf consumed and T=area of treated leaf consumed.

[2] = test system: male gypsy moth antenna response to pheromone (+)-1; assay: EAG short-term (STI) and long-term (LTI) inhibition of pheromone signaling (Example 5); parameters: species or system Lymantria dispar; conditions: for Activity (%): short-term inhibition (STI) / inhibition at 0.001 mg / inhibition at 0.01 mg / inhibition at 0.1 mg: negative = enhancement; for inhibition at 100 µg, 0.1 mg / inhibition at 0.001 mg / inhibition at 0.01 mg / inhibition at 0.1 mg: Lymantria dispar
Procedure, shortened: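 Excised male gypsy moth antenna in saline pH 6.8 under purified air (300 mL/min); 0.3 s puffs: air, (+)-1 100 ng, (+)-1 plus compound 1, 10, 100 μg per cartridge, then (+)-1 alone. STI: mixed-puff air-corrected depolarization loss versus first pheromone puff; LTI: final pheromone-puff loss.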

gypsy moths = assay: Field test of trap catches, Northern Japan 2009 (Example 12); type: in vivo, Lymantria dispar; conditions: (+)-dis 40 μg/lure & compound 40 mg/lure, vs (+)-dis alone
Method: Ten traps were used per treatment. The solvent used to deliver the compounds onto the lures was doubly distilled hexane. The hexane was evaporated prior to packing and shipping the lures. The field test was conducted in 10 replicates in Northern Japan. The test was conducted Aug. 16-18, 2009, in an area where gypsy moths are known to live. […] Traps were arranged randomized, placed on platforms. The experiment was conducted blind. The lures contained 40 μg disparlure/lure, a low dose for a field trial (typically 100 μg-1 mg are used). For each treatment, 10 traps were deployed.

[3] = test system: male gypsy moth antenna response to odorants other than (+)-1; assay: Long-term inhibition of responses to other pheromone and host plant odorants, EAG (Example 8, first objective); parameters: species or system Lymantria dispar; conditions: for long-term activity (%) / short-term activity (%): antagonist 100 μg
Method: To determine whether the long-term inhibitory effects of 3c{2,3} and DEET are specific to (+)-1 or also apply to other odorants, compound 3c{2,3} and DEET were tested further with other odorants: (−)-1, racemic 1, dispar alkene, methyl eugenol and 1-hexanol.
These included (−)-1, racemic 1, dispar alkene (the alkene corresponding to the carbon framework of 1), methyl eugenol (a characteristic oak wood odorant) and 1-hexanol (a green leaf volatile, shown previously to be detected by gypsy moth antennae). For the pure odorant puffs, (−)-1 and racemic 1 were administered at 100 ng/cartridge, the alkene, methyl eugenol was administered at 1 μg/cartridge and 1-hexanol was administered at 100 μg/cartridge. The antagonists were both administered at 100 μg/cartridge, mixed with the appropriate dose of the odorant. The puff order was: i) air, ii) pure odorant, iii) odorant+antagonist, iv) pure odorant. All puffs were corrected for the air response as in Eq. 1. STI values were obtained from the depolarization […]. LTI values were obtained by comparing the depolarization of puff iv relative to that of puff ii.

[4] = test system: male gypsy moth antennae response to pheromone (+)-1 with plant odors; assay: Effect on mixed pheromone/plant odorant stimulus, EAG (Example 8, second objective); parameters: species or system Lymantria dispar
Method: A second objective for this experiment was to determine whether the oak volatiles, methyl eugenol and 1-hexanol, can enhance the antennal response to (+)-1 and whether the mixed pheromone/plant odorant stimulus can be inhibited by compound 3c{2,3} or DEET. The puff order was: i) air, ii) pure (+)-1 (100 ng), iii) (+)-1 (100 ng) and plant odorant (1 μg for methyl eugenol and 100 μg for 1-hexanol), iv) (+)-1 and plant odorant as in iii+antagonist (100 μg), v) same as in iii. Depolarizations were corrected for the air response as in Eq. 1 and the short-term effects were calculated for puff iii relative to puff ii, and for puff iv relative to puff ii. Long-term effects were calculated for puff v relative to puff iii (for LTI of the mixed pheromone/plant odorant plume) and for puff v relative to puff ii (to determine whether long-term effects of the plant odorant and of the antagonist cancel).

[5] = test system: male gypsy moth antenna response to mixed pheromone/modulator plume; assay: EAG peak broadening (PB) (Example 11); parameters: species or system Lymantria dispar; conditions: mixed plume, 100 μg compound and 100 ng pheromone (puff v vs puff ii)
Method: A mixed pheromone/modulator plume could elicit a prolonged response (FIG. 1A, puff v; FIG. 2), and this was termed peak broadening (PB). PB was calculated from the EAG traces as follows: PB=100×(Δtv−Δtii)/Δtii
Where Δt was the width of the EAG peak (in s) from the start of the depolarization to the return to background potential.

[6] = third instar larvae, oak leaf discs, choice between treated and control disc for 17.5 hours, ((C−T)/(C+T))*100
[7] = mixed plume (+)-1 100 ng + compound 1 μg, mean ± S.E.
[8] = mixed plume (+)-1 100 ng + compound 10 μg, mean ± S.E.
[9] = mixed plume (+)-1 100 ng + compound 100 μg (puff v), mean ± S.E.
[10] = pure (+)-1 100 ng plume following mixed plume with 100 μg compound, mean ± S.E.
[11] = mixed plume (+)-1 100 ng + compound 1 μg, mean ± S.E., read-out: Activity (%): short-term inhibition (STI)
[12] = mixed plume (+)-1 100 ng + compound 10 μg, mean ± S.E., read-out: Activity (%): short-term inhibition (STI)
[13] = mixed plume (+)-1 100 ng + compound 100 μg (puff v), mean ± S.E., read-out: Activity (%): short-term inhibition (STI)
[14] = pure (+)-1 100 ng plume following mixed plume with 100 μg compound, mean ± S.E., read-out: Activity (%): long-term inhibition (LTI)
[15] = plant synergist 1-hexanol 100 μg
[16] = plant synergist methyl eugenol 1 μg
[17] = odorant racemic disparlure 100 ng

`C=CCc1ccc(OCCC)c(OC)c1` [Pr eugenol] was tested. Which GC-EAD activity (male gypsy moth antenna) did it give?
The GC-EAD activity was “None”.

And the “Feeding Deterrence (%)” value [1, 6]?
The value was 52.67%.

What about the “Activity (%): short-term inhibition (STI)” value [2, 7] of the same molecule?
Its value is 18 ± 37 (6) %.

What about the “Activity (%): short-term inhibition (STI)” value [2, 8] of the same molecule?
The value was 39 ± 23 (6) %.

And the “Activity (%): short-term inhibition (STI)” value [2, 9]?
Its value is −79 ± 25 (6) %.

And the “Activity (%): long-term inhibition (LTI)” value [2, 10]?
The value was 7 ± 6 (6) %.

`C=CCc1ccc(OC)c(OC)c1` [Me eugenol] was tested. Which “trap catches in the field” value (gypsy moths) did it give?
The value was “enhanced the trap catches significantly”.

What about the GC-EAD activity (male gypsy moth antenna) of the same molecule?
Its GC-EAD activity is “None”.

What about the “EAG response to the pure odorant (in words)” value [3] of the same molecule?
Its value is “same responses than clean air”.

And the “Feeding Deterrence (%)” value ([1]; foliar, 17.5 h)?
Its value is 81.15%.

And the inhibition at 100 µg, 0.1 mg ([2]; read-out: Activity (%): long-term inhibition (LTI), pure (+)-1 100 ng plume following mixed plume with 100 μg compound, mean ± S.E.)?
The inhibition at 100 µg, 0.1 mg was 8 ± 11%.

And the inhibition at 0.001 mg ([2]; read-out: Activity (%): short-term inhibition (STI), mixed plume (+)-1 100 ng + compound 1 μg, mean ± S.E.)?
The inhibition at 0.001 mg was -1 ± 13%.

What about the inhibition at 0.01 mg ([2]; read-out: Activity (%): short-term inhibition (STI), mixed plume (+)-1 100 ng + compound 10 μg, mean ± S.E.) of the same molecule?
Its inhibition at 0.01 mg is 76 ± 7%.

And the inhibition at 0.1 mg ([2]; read-out: Activity (%): short-term inhibition (STI), mixed plume (+)-1 100 ng + compound 100 μg (puff v), mean ± S.E.)?
Its inhibition at 0.1 mg is -152 ± 30%.

`CCCCCCO` [Compound 1-hexanol, 1-hexanol, reference compound] was tested. Which “short-term effect with the plant synergist” value ([4]; (+)-1 100 ng + 1-hexanol 100 μg, no antagonist) did it give?
Its value is −19 ± 24 (10).

And the “EAG response to the pure odorant (in words)” value [3]?
The value was “weak odorant”.

For `CCCCOc1ccccc1OCCCC` [3a{4,4}, 1,2-Dibutoxy benzene], which GC-EAD activity (male gypsy moth antenna) is on record?
The GC-EAD activity was “+ broad”.

What about the inhibition at 0.001 mg [2, 11] of the same molecule?
The inhibition at 0.001 mg was -48 ± 28%.

And the inhibition at 0.01 mg [2, 12]?
Its inhibition at 0.01 mg is 14 ± 31%.

And the inhibition at 0.1 mg [2, 13]?
The inhibition at 0.1 mg was 27 ± 29%.

And the inhibition at 100 µg, 0.1 mg [2, 14]?
Its inhibition at 100 µg, 0.1 mg is 49 ± 12%.

And the “activity (% peak broadening)” value [5]?
The value was 86 ± 32%.

`COc1ccccc1OC` [3a{1,1}, 1,2-Dimethoxy benzene] was tested. Which GC-EAD activity (male gypsy moth antenna) did it give?
Its GC-EAD activity is “++ sharp”.

And the inhibition at 100 µg, 0.1 mg ([2]; read-out: Activity (%): long-term inhibition (LTI))?
Its inhibition at 100 µg, 0.1 mg is 18 ± 13%.

What about the “activity (% peak broadening)” value [5] of the same molecule?
The value was 99 ± 25%.

Which GC-EAD activity (male gypsy moth antenna) does the source give for `CCCOc1ccccc1OCCC` [3a{3,3}, 1,2-Dipropoxy benzene] here?
The GC-EAD activity was “++ sharp”.

And the inhibition at 0.001 mg [2, 11]?
The inhibition at 0.001 mg was 37 ± 14%.

What about the inhibition at 0.01 mg [2, 12] of the same molecule?
Its inhibition at 0.01 mg is 4 ± 21%.

And the inhibition at 0.1 mg [2, 13]?
Its inhibition at 0.1 mg is -11 ± 36%.

What about the inhibition at 100 µg, 0.1 mg [2, 14] of the same molecule?
The inhibition at 100 µg, 0.1 mg was 36 ± 9%.

What about the “activity (% peak broadening)” value [5] of the same molecule?
Its value is 80 ± 31%.

What does the source list for `CCN(CC)C(=O)c1cccc(C)c1` [DEET, reference compound]?
short-term effect with plant synergist + antagonist ([4]; (+)-1 100 ng + 1-hexanol 100 μg + antagonist 100 μg): −339 ± 206 (5); short-term effect with plant synergist + antagonist ([4]; (+)-1 100 ng + methyl eugenol 1 μg + antagonist 100 μg): −210 ± 120 (5); long-term effect on (+)-1 response [4, 15]: −53 ± 48 (5); long-term effect on the mixed (+)-1/plant odor plumes [4, 15]: −24 ± 19 (5); long-term effect on (+)-1 response [4, 16]: 27 ± 29 (5); long-term effect on the mixed (+)-1/plant odor plumes [4, 16]: 30 ± 27 (5); trap catches in the field (gypsy moths): enhanced the trap catches significantly; long-term activity (%) ([3]; odorant 1-hexanol 100 μg): 7 ± 18%; short-term activity (%) ([3]; odorant 1-hexanol 100 μg): 6 ± 30%; long-term activity (%) ([3]; odorant (−)-disparlure 100 ng): −10 ± 29%; short-term activity (%) ([3]; odorant (−)-disparlure 100 ng, negative = enhancement): −322 ± 66%; long-term activity (%) ([3]; odorant dispar alkene 1 μg): 52 ± 22%; long-term activity (%) ([3]; odorant methyl eugenol 1 μg): 8 ± 8%; long-term activity (%) [3, 17]: −126 ± 133%; short-term activity (%) [3, 17]: −468 ± 231%; Feeding Deterrence (%) [1, 6]: 47.76%; long-term inhibition (LTI) activity (in words) [2]: strongest long-term inhibitors; also recorded: strong LTI activity; Activity (%): short-term inhibition (STI) [2, 7]: −165 ± 51 (5) %; Activity (%): short-term inhibition (STI) [2, 8]: −214 ± 48 (5) %; Activity (%): short-term inhibition (STI) [2, 9]: −203±42%; inhibition of the recovery phase (RI, R^1 activity) ([2]; mixed puff with highest dose (puff v)): 9±9%; Activity (%): long-term inhibition (LTI) [2, 10]: 78 ± 6 (5) %

Which GC-EAD activity (male gypsy moth antenna) does the source give for `CCOc1ccccc1OCC` [3a{2,2}, 1,2-Diethoxy benzene] here?
Its GC-EAD activity is “+ sharp”.

And the inhibition at 0.001 mg [2, 11]?
Its inhibition at 0.001 mg is -10 ± 29%.

And the inhibition at 0.01 mg [2, 12]?
The inhibition at 0.01 mg was -23 ± 42%.

And the inhibition at 0.1 mg [2, 13]?
Its inhibition at 0.1 mg is -22 ± 69%.

And the inhibition at 100 µg, 0.1 mg [2, 14]?
The inhibition at 100 µg, 0.1 mg was 15 ± 11%.

What about the “activity (% peak broadening)” value [5] of the same molecule?
Its value is 106 ± 32%.

How did the GC-EAD activity (male gypsy moth antenna) turn out when `C=CCOc1cccc(OCC)c1` [3b{2,6}, 1-allyloxy-3-ethoxybenzene] was run?
The GC-EAD activity was “None”.

What about the inhibition at 0.001 mg [2, 11] of the same molecule?
Its inhibition at 0.001 mg is -115 ± 43%.

And the inhibition at 0.01 mg [2, 12]?
The inhibition at 0.01 mg was -17 ± 54%.

What about the inhibition at 0.1 mg [2, 13] of the same molecule?
Its inhibition at 0.1 mg is -50 ± 74%.

And the inhibition at 100 µg, 0.1 mg [2, 14]?
Its inhibition at 100 µg, 0.1 mg is 25 ± 8%.

What about the “activity (% peak broadening)” value [5] of the same molecule?
Its value is 77 ± 33%.
